Measured values as given in patent US20230114728A1 (Venatorx Pharmaceuticals, Inc., priority 2019, published 2023).
≈ marks a conversion by molar mass, not a printed value.

Experiments:
Assay type in all cases: cell-based
A. baumannii ATCC 19606 = assay: Broth microdilution MIC in CAMHB; conditions: Acinetobacter baumannii, ATCC19606; MHB; read-out: Minimum Inhibitory Concentration, A. baumannii ATCC 19606
Procedure, shortened: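 CLSI broth microdilution in CAMHB: 2-fold compound dilutions inoculated at 2-8×10^5 CFU/mL from 3-5 h log-phase cultures. Incubated at 37 °C for 16-20 h (Enterobacteriaceae, Pseudomonas); MIC read visually as lowest concentration without growth. Strains include hyper-permeable and efflux-deficient mutants.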

E. coli 901C = assay: Broth microdilution MIC in CAMHB; conditions: Escherichia coli; E. coli 901C (hyper-permeable); MHB; read-out: Minimum Inhibitory Concentration, E. coli 901C
Procedure, shortened: (§1)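 Lowest compound concentration with no visible growth after 16-20 h at 37 °C defines MIC. Plates of 2-fold serial dilutions in cation-adjusted Mueller Hinton broth received 2-8×10^5 CFU/mL of exponentially grown cells, per CLSI methods; panel spans reference, hyper-permeable and efflux-pump-deleted strains.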

E. coli AG100A = assay: Broth microdilution MIC in CAMHB; conditions: Escherichia coli, read-out: Minimum Inhibitory Concentration, E. coli AG100A
Procedure, shortened: as §1

E. coli AG100 = assay: Broth microdilution MIC in CAMHB; conditions: Escherichia coli; E. coli AG100 (wild-type parent); MHB; read-out: Minimum Inhibitory Concentration, E. coli AG100
Procedure, shortened: as §1

E. coli ATCC 25922 = assay: Broth microdilution MIC in CAMHB; conditions: Escherichia coli, ATCC25922; E. coli ATCC 25922; MHB; read-out: Minimum Inhibitory Concentration, E. coli 25922
Procedure, shortened: as §1

E. coli D22 = assay: Broth microdilution MIC in CAMHB; conditions: Escherichia coli; E. coli D22 (hyper-permeable); MHB; read-out: Minimum Inhibitory Concentration, E. coli D22
Procedure, shortened: as §1

[1] = system: K. pneumoniae 848844 producing SHV-11 and KPC-2; assay: Broth microdilution MIC in CAMHB; conditions: Klebsiella pneumoniae, read-out: Minimum Inhibitory Concentration, K. pneumoniae 848844
Procedure, shortened: as §1

[2] = system: K. pneumoniae SI-117 producing VIM-1; assay: Broth microdilution MIC in CAMHB; conditions: Klebsiella pneumoniae, read-out: Minimum Inhibitory Concentration, K. pneumoniae SI-117
Procedure, shortened: as §1

[3] = system: K. pneumoniae UMM producing SHV-5 and KPC-2; assay: Broth microdilution MIC in CAMHB; conditions: Klebsiella pneumoniae, read-out: Minimum Inhibitory Concentration, K. pneumoniae UMM
Procedure, shortened: as §1

[4] = system: P. aeruginosa (ΔmexAB-oprM); assay: Broth microdilution MIC in CAMHB; conditions: Pseudomonas aeruginosa, read-out: Minimum Inhibitory Concentration, P. aeruginosa ΔmexAB-OprM
Procedure, shortened: as §1

P. aeruginosa ATCC 27853 = assay: Broth microdilution MIC in CAMHB; conditions: Pseudomonas aeruginosa, ATCC27853; MHB; read-out: Minimum Inhibitory Concentration, P. aeruginosa ATCC 27853
Procedure, shortened: as §1

P. aeruginosa ATCC 35151 = assay: Broth microdilution MIC in CAMHB; conditions: Pseudomonas aeruginosa, ATCC35151; MHB; hyper-permeable strain; read-out: Minimum Inhibitory Concentration, P. aeruginosa ATCC 35151
Procedure, shortened: as §1

N. gonorrhoeae H041 = assay: Liquid broth MIC in Fastidious broth; conditions: Neisseria gonorrhoeae, H041, read-out: Minimum Inhibitory Concentration, N. gonorrhoeae H041
Procedure, shortened: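 Broth microdilution in Fastidious broth with 2-fold compound series; inoculum from 24 h chocolate agar colonies, 5×10^5 CFU/mL start. Incubated ~24 hours at 36° C, 5% CO2. MIC read visually as lowest concentration giving <10% growth versus full-growth wells; strains carry mosaic PBP2.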

Structure (SMILES): CCN1CCN(C(=O)NC(C(=O)N[C@H]2Cc3cccc(C(=O)O)c3OB2O)c2c(F)cc(C(=O)O)cc2F)C(=O)C1=O (stereo partly drawn) [Example 157, (3R)-3-(2-(4-carboxy-2,6-difluorophenyl)-2-(4-ethyl-2,3-dioxopiperazine-1-carboxamido)acetamido)-2-hydroxy-3,4-dihydro-2H-benzo[e][1,2]oxaborinine-8-carboxylic acid]
- MIC (A. baumannii ATCC 19606): > 128 µg/mL
- MIC (E. coli 901C): < 0.25 µg/mL
- MIC (E. coli AG100A): 8 to 16 µg/mL (≈ 13.6 to 27.2 µM)
- MIC (E. coli AG100): 32 to 64 µg/mL (≈ 54.4 to 109 µM)
- MIC (E. coli ATCC 25922): 32 to 64 µg/mL (≈ 54.4 to 109 µM)
- MIC (E. coli D22): 2 to 4 µg/mL (≈ 3.4 to 6.8 µM)
- MIC [1]: > 128 µg/mL
- MIC [2]: > 128 µg/mL
- MIC [3]: 32 to 64 µg/mL (≈ 54.4 to 109 µM)
- MIC [4]: 8 to 16 µg/mL (≈ 13.6 to 27.2 µM)
- MIC (P. aeruginosa ATCC 27853): > 128 µg/mL
- MIC (P. aeruginosa ATCC 35151): 0.5 to 1 µg/mL (≈ 0.85 to 1.7 µM)
- MIC (N. gonorrhoeae H041): 16 to 32 µg/mL (≈ 27.2 to 54.4 µM)

Structure (SMILES): NC1(CN2CCN(C(=O)N[C@H](C(=O)N[C@H]3Cc4cccc(C(=O)O)c4OB3O)c3c(F)cc(O)cc3F)C(=O)C2=O)CC1 (single isomer, unassigned) [Example 122]
- MIC (A. baumannii ATCC 19606): > 128 µg/mL
- MIC (E. coli 901C): 2 to 4 µg/mL (≈ 3.33 to 6.65 µM)
- MIC (E. coli AG100A): 8 to 16 µg/mL (≈ 13.3 to 26.6 µM)
- MIC (E. coli AG100): 32 to 64 µg/mL (≈ 53.2 to 106 µM)
- MIC (E. coli ATCC 25922): 32 to 64 µg/mL (≈ 53.2 to 106 µM)
- MIC (E. coli D22): 8 to 16 µg/mL (≈ 13.3 to 26.6 µM)
- MIC [1]: > 128 µg/mL
- MIC [2]: 32 to 64 µg/mL (≈ 53.2 to 106 µM)
- MIC [3]: 32 to 64 µg/mL (≈ 53.2 to 106 µM)
- MIC [4]: 32 to 64 µg/mL (≈ 53.2 to 106 µM)
- MIC (P. aeruginosa ATCC 27853): > 128 µg/mL
- MIC (P. aeruginosa ATCC 35151): 2 to 4 µg/mL (≈ 3.33 to 6.65 µM)
- MIC (N. gonorrhoeae H041): > 64 µg/mL

Structure (SMILES): NCCCN1CCN(C(=O)NC(C(=O)N[C@H]2Cc3ccc(F)c(C(=O)O)c3OB2O)c2c(F)cc(O)cc2F)C(=O)C1=O (stereo partly drawn) [Example 178, (3R)-3-(2-(4-(3-aminopropyl)-2,3-dioxopiperazine-1-carboxamido)-2-(2,6-difluoro-4-hydroxyphenyl)acetamido)-7-fluoro-2-hydroxy-3,4-dihydro-2H-benzo[e][1,2]oxaborinine-8-carboxylic acid]
- MIC (A. baumannii ATCC 19606): > 128 µg/mL
- MIC (E. coli 901C): 2 to 4 µg/mL (≈ 3.29 to 6.59 µM)
- MIC (E. coli AG100A): 8 to 16 µg/mL (≈ 13.2 to 26.3 µM)
- MIC (E. coli AG100): 8 to 16 µg/mL (≈ 13.2 to 26.3 µM)
- MIC (E. coli ATCC 25922): 32 to 64 µg/mL (≈ 52.7 to 105 µM)
- MIC (E. coli D22): 2 to 4 µg/mL (≈ 3.29 to 6.59 µM)
- MIC [1]: 32 to 64 µg/mL (≈ 52.7 to 105 µM)
- MIC [2]: 32 to 64 µg/mL (≈ 52.7 to 105 µM)
- MIC [3]: 8 to 16 µg/mL (≈ 13.2 to 26.3 µM)
- MIC [4]: 8 to 16 µg/mL (≈ 13.2 to 26.3 µM)
- MIC (P. aeruginosa ATCC 27853): > 128 µg/mL
- MIC (P. aeruginosa ATCC 35151): 0.5 to 1 µg/mL (≈ 0.823 to 1.65 µM)
- MIC (N. gonorrhoeae H041): > 64 µg/mL

Structure (SMILES): CCN1CCN(C(=O)N[C@H](C(=O)N[C@H]2Cc3cccc(C(=O)O)c3OB2O)c2ccc(C(=O)O)c(Cl)c2)C(=O)C1=O (single isomer, unassigned) [Example 155]
- MIC (A. baumannii ATCC 19606): > 128 µg/mL
- MIC (E. coli 901C): < 0.25 µg/mL
- MIC (E. coli AG100A): 8 to 16 µg/mL (≈ 13.6 to 27.3 µM)
- MIC (E. coli AG100): 32 to 64 µg/mL (≈ 54.5 to 109 µM)
- MIC (E. coli ATCC 25922): > 128 µg/mL
- MIC (E. coli D22): 2 to 4 µg/mL (≈ 3.41 to 6.82 µM)
- MIC [1]: > 128 µg/mL
- MIC [2]: > 128 µg/mL
- MIC [3]: > 128 µg/mL
- MIC [4]: 8 to 16 µg/mL (≈ 13.6 to 27.3 µM)
- MIC (P. aeruginosa ATCC 27853): > 128 µg/mL
- MIC (P. aeruginosa ATCC 35151): 0.5 to 1 µg/mL (≈ 0.852 to 1.7 µM)
- MIC (N. gonorrhoeae H041): 4 to 8 µg/mL (≈ 6.82 to 13.6 µM)

Structure (SMILES): NCCN1CCN(C(=O)N[C@@H](C(=O)N[C@H]2Cc3cccc(C(=O)O)c3OB2O)c2cc(F)c(O)c(F)c2)C(=O)C1=O (single isomer, unassigned) [Example 159]
- MIC (A. baumannii ATCC 19606): > 128 µg/mL
- MIC (E. coli 901C): 0.5 to 1 µg/mL (≈ 0.869 to 1.74 µM)
- MIC (E. coli AG100A): 2 to 4 µg/mL (≈ 3.48 to 6.95 µM)
- MIC (E. coli AG100): 8 to 16 µg/mL (≈ 13.9 to 27.8 µM)
- MIC (E. coli ATCC 25922): 8 to 16 µg/mL (≈ 13.9 to 27.8 µM)
- MIC (E. coli D22): 2 to 4 µg/mL (≈ 3.48 to 6.95 µM)
- MIC [1]: 32 to 64 µg/mL (≈ 55.6 to 111 µM)
- MIC [2]: 32 to 64 µg/mL (≈ 55.6 to 111 µM)
- MIC [3]: 8 to 16 µg/mL (≈ 13.9 to 27.8 µM)
- MIC [4]: 2 to 4 µg/mL (≈ 3.48 to 6.95 µM)
- MIC (P. aeruginosa ATCC 27853): 32 to 64 µg/mL (≈ 55.6 to 111 µM)
- MIC (P. aeruginosa ATCC 35151): < 0.25 µg/mL
- MIC (N. gonorrhoeae H041): > 64 µg/mL

Structure (SMILES): NCCN1CCN(C(=O)N[C@H](C(=O)N[C@H]2Cc3cccc(C(=O)O)c3OB2O)c2cc(F)c(O)c(F)c2F)C(=O)C1=O (single isomer, unassigned) [Example 167]
- MIC (A. baumannii ATCC 19606): > 128 µg/mL
- MIC (E. coli 901C): 2 to 4 µg/mL (≈ 3.37 to 6.74 µM)
- MIC (E. coli AG100A): 8 to 16 µg/mL (≈ 13.5 to 27 µM)
- MIC (E. coli AG100): 32 to 64 µg/mL (≈ 53.9 to 108 µM)
- MIC (E. coli ATCC 25922): 32 to 64 µg/mL (≈ 53.9 to 108 µM)
- MIC (E. coli D22): 8 to 16 µg/mL (≈ 13.5 to 27 µM)
- MIC [1]: > 128 µg/mL
- MIC [2]: > 128 µg/mL
- MIC [3]: 32 to 64 µg/mL (≈ 53.9 to 108 µM)
- MIC [4]: 8 to 16 µg/mL (≈ 13.5 to 27 µM)
- MIC (P. aeruginosa ATCC 27853): > 128 µg/mL
- MIC (P. aeruginosa ATCC 35151): 0.5 to 1 µg/mL (≈ 0.843 to 1.69 µM)
- MIC (N. gonorrhoeae H041): > 64 µg/mL

Structure (SMILES): CCN1CCN(C(=O)N[C@H](C(=O)N[C@H]2Cc3ccc(F)c(C(=O)O)c3OB2O)c2c(F)cc(O)c(O)c2Cl)C(=O)C1=O (single isomer, unassigned) [Example 125]
- MIC (A. baumannii ATCC 19606): > 128 µg/mL
- MIC (E. coli 901C): < 0.25 µg/mL
- MIC (E. coli AG100A): 2 to 4 µg/mL (≈ 3.27 to 6.55 µM)
- MIC (E. coli AG100): 32 to 64 µg/mL (≈ 52.4 to 105 µM)
- MIC (E. coli ATCC 25922): 32 to 64 µg/mL (≈ 52.4 to 105 µM)
- MIC (E. coli D22): 2 to 4 µg/mL (≈ 3.27 to 6.55 µM)
- MIC [1]: 32 to 64 µg/mL (≈ 52.4 to 105 µM)
- MIC [2]: 32 to 64 µg/mL (≈ 52.4 to 105 µM)
- MIC [3]: 32 to 64 µg/mL (≈ 52.4 to 105 µM)
- MIC [4]: 32 to 64 µg/mL (≈ 52.4 to 105 µM)
- MIC (P. aeruginosa ATCC 27853): > 128 µg/mL
- MIC (P. aeruginosa ATCC 35151): 2 to 4 µg/mL (≈ 3.27 to 6.55 µM)
- MIC (N. gonorrhoeae H041): > 64 µg/mL
